Where two headings read alike, the source gives them in different places.
Experiments:
K-Ras G12C = K-Ras G12C (Homo sapiens (Human), UniProt P01116+P62937, G12C); experiment: Ras-Raf (BRAF RBD) disruption / FRET / MOA assay, KRAS G12C; type: biochemical; settings: KRAS G12C, Ras-Raf disruption/FRET/MOA assay
In short: (§1)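 Ras:RAF disruption was scored as a fall in TR-FRET ratio relative to DMSO. Compound ranged in 3-fold steps over 10 points from 30 μM final; incubation ran 3 h at 25° C, detection antibodies a further 1.5 h. Reported as IC50.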

NRAS Q61K = NRAS Q61K (Homo sapiens (Human), UniProt P01111+P62937, Q61K); experiment: Ras-Raf (BRAF RBD) disruption / FRET / MOA assay, NRAS Q61K; type: biochemical
In short: (§2)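 TR-FRET disruption of nucleotide-loaded Ras binding to BRAF RBD via compound-driven ternary complex with cyclophilin A. Compound as 10-point 3-fold series from 30 μM final, 3 h at 25° C, then anti-His Eu-W1024 (10 nM) and anti-GST allophycocyanin (50 nM) for 1.5 h. IC50 from decreased FRET ratio versus DMSO.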

NRAS G12C = NRAS G12C (Homo sapiens (Human), UniProt P01111+P62937, G12C); experiment: Ras-Raf (BRAF RBD) disruption / FRET / MOA assay, NRAS G12C; type: biochemical
In short: as §1

KRAS WT = KRAS WT (Homo sapiens (Human), UniProt P01116+P62937); experiment: Ras-Raf (BRAF RBD) disruption / FRET / MOA assay, KRAS WT; type: biochemical; settings: read-out: IC50* KRAS WT FRET data
In short: as §1

KRAS G12V = KRAS G12V (Homo sapiens (Human), UniProt P01116+P62937, G12V); experiment: Ras-Raf (BRAF RBD) disruption / FRET / MOA assay, KRAS G12V; type: biochemical; settings: read-out: IC50* KRAS G12V FRET data
In short: as §1

NRAS WT = NRAS WT (Homo sapiens (Human), UniProt P01111+P62937); experiment: Ras-Raf (BRAF RBD) disruption / FRET / MOA assay, NRAS WT; type: biochemical
In short: as §2

K-Ras G13C = K-Ras G13C (Homo sapiens (Human), UniProt P01116+P62937, G13C); experiment: Ras-Raf (BRAF RBD) disruption / FRET / MOA assay, KRAS G13C; type: biochemical; settings: KRAS G13C; Ras-Raf disruption/FRET/MOA assay; read-out: IC50* KRAS G13C FRET data
In short: as §1

NCI-H358 (K-Ras G12C) = experiment: CellTiter-Glo cell viability assay, NCI-H358; type: cell-based, human; settings: Homo sapiens, NCI-H358, 120 h, class symbols
In short: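 Viability of K-Ras mutant lines is measured by ATP luminescence after five days of compound treatment. Percent of DMSO control is calculated and dose-response data are fitted with a four-parameter logistic equation.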

[1] = read-out: IC50* KRAS G12C FRET data
[2] = NRAS Q61K, Ras-Raf disruption/FRET/MOA assay, read-out: IC50* NRAS Q61K FRET data
[3] = read-out: IC50* NRAS G12C FRET data
[4] = read-out: IC50* NRAS WT FRET data
[5] = NCI-H358, 5-day treatment, read-out: Additional H358 Cell Viability assay data (K-Ras G12C, IC50)

NRAS Q61K, sequence (P01111 whole entry Q61K): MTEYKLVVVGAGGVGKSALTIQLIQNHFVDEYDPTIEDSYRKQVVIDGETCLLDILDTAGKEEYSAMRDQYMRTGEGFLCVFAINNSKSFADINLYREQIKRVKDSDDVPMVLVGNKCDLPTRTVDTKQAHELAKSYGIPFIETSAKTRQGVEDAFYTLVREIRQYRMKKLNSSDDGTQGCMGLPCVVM
NRAS Q61K, sequence (P62937 whole entry): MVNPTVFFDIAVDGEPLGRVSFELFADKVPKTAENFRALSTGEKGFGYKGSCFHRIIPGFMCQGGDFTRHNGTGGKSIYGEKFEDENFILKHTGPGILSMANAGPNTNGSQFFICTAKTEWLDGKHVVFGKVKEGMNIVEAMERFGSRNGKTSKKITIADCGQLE
K-Ras G13C, sequence (P01116-2 other isoform, or with tags, fused parts or gaps G13C): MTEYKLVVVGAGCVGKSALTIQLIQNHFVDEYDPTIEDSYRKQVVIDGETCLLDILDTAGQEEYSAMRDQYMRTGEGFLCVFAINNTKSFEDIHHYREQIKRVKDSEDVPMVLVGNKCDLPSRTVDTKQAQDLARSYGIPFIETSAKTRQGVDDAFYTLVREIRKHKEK
K-Ras G13C, sequence (P62937 whole entry): as the sequence (P62937 whole entry) above
NRAS G12C, sequence (P01111 whole entry G12C): as the sequence (P01111 whole entry Q61K) above, with G12C, K61Q counted along it
NRAS G12C, sequence (P62937 whole entry): as the sequence (P62937 whole entry) above
K-Ras G12C, sequence (P01116-2 other isoform, or with tags, fused parts or gaps G12C): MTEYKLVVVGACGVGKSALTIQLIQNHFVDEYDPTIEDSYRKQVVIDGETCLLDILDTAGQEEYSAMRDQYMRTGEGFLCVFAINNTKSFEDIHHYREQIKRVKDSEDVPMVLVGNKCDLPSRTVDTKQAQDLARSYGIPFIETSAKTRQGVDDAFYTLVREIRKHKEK
K-Ras G12C, sequence (P62937 whole entry): as the sequence (P62937 whole entry) above
NRAS WT, sequence (P01111 whole entry): as the sequence (P01111 whole entry Q61K) above, with K61Q counted along it
NRAS WT, sequence (P62937 whole entry): as the sequence (P62937 whole entry) above
KRAS WT, sequence (P01116-2 other isoform, or with tags, fused parts or gaps): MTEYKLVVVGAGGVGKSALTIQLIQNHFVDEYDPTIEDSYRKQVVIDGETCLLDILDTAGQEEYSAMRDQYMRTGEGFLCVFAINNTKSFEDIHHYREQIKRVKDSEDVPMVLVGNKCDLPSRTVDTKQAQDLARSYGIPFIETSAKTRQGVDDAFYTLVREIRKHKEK
KRAS WT, sequence (P62937 whole entry): as the sequence (P62937 whole entry) above
KRAS G12V, sequence (P01116-2 other isoform, or with tags, fused parts or gaps G12V): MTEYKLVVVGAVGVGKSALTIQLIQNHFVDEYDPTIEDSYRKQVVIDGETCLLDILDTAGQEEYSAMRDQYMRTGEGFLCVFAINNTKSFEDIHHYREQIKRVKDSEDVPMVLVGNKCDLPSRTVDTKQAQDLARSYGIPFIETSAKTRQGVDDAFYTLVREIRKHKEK
KRAS G12V, sequence (P62937 whole entry): as the sequence (P62937 whole entry) above

SMILES | IC50 (K-Ras G12C; IC50* KRAS G12C FRET data) | IC50 (NRAS Q61K) | IC50 (NRAS G12C; IC50* NRAS G12C FRET data) | IC50 (KRAS WT) | IC50 (KRAS G12V) | IC50 (NRAS WT; IC50* NRAS WT FRET data) | IC50 (K-Ras G13C) | IC50 (NCI-H358 (K-Ras G12C); read-out: Additional H358 Cell Viability assay data (K-Ras G12C, IC50, uM), NCI-H358, 5-day treatment) | IC50 (K-Ras G12C; [1]) | IC50 (NRAS Q61K; [2]) | IC50 (NRAS G12C; [3]) | IC50 (NRAS WT; [4]) | IC50 (NCI-H358 (K-Ras G12C); [5])
CCn1c(-c2cccnc2[C@H](C)OC)c2c3cc(ccc31)-c1cccc(c1)C[C@H](NC(=O)[C@H](C(C)C)N1CC[C@@]3(CCN(C(=O)C#C[C@@H]4COCCN4C)C3)C1=O)C(=O)N1CCC[C@H](N1)C(=O)OCC(C)(C)C2 (atropisomer, axis not shown) [Example A549] | < 10 nM | 1000 to 10000 nM | 10 to 100 nM | 1000 to 10000 nM | 1000 to 10000 nM | 1000 to 10000 nM | 100 to 1000 nM | < 0.01 µM |  |  |  |  | 
CCn1c(-c2cccnc2[C@H](C)OC)c2c3cc(ccc31)-c1cccc(c1)C[C@H](NC(=O)[C@H](C(C)C)N1CC[C@]3(CCN(C(=O)C#C[C@@]4(N(C)C)CCOC4)C3)C1=O)C(=O)N1CCC[C@H](N1)C(=O)OCC(C)(C)C2 (atropisomer, axis not shown) [Example A560] |  |  |  | 1000 to 10000 nM | 1000 to 10000 nM |  | 100 to 1000 nM |  | 10 to 100 nM | 1000 to 10000 nM | 10 to 100 nM | 1000 to 10000 nM | < 0.01 µM
C=CC(=O)N1C[C@@H]2CN(C(=O)N(C)[C@H](C(=O)N[C@H]3Cc4nc(cs4)-c4ccc5c(c4)c(c(-c4cccnc4[C@H](C)OC)n5CC)CC(C)(C)COC(=O)[C@@H]4CCCN(N4)C3=O)C(C)C)[C@@H]2C1 (atropisomer, axis not shown) [Example A561] |  |  |  | 1000 to 10000 nM | 1000 to 10000 nM |  | 100 to 1000 nM |  | 100 to 1000 nM | 100 to 1000 nM | 100 to 1000 nM | 1000 to 10000 nM | 0.1 to 1 µM
C=CC(=O)N1CCO[C@H]2CN(C(=O)N(C)[C@H](C(=O)N[C@H]3CC4=NN=C(O4)c4ccc5c(c4)c(c(-c4cccnc4[C@H](C)OC)n5CC(F)(F)F)CC(C)(C)COC(=O)[C@@H]4CCCN(N4)C3=O)C(C)C)C[C@H]21 (atropisomer, axis not shown) [Example A576] |  |  |  | 1000 to 10000 nM | > 10000 nM |  | 100 to 1000 nM |  | 100 to 1000 nM | 1000 to 10000 nM | 100 to 1000 nM | 1000 to 10000 nM | 0.1 to 1 µM
CO[C@@H](C)c1ncccc1-c1c2c3cc(ccc3n1CC(F)(F)F)-c1nc(co1)C[C@H](NC(=O)[C@H](C(C)C)N(C)C(=O)C1(F)CCN(C(=O)C#CC(C)(C)N(C)C)CC1)C(=O)N1CCC[C@H](N1)C(=O)OCC(C)(C)C2 (atropisomer, axis not shown) [Example A578] |  |  |  | 100 to 1000 nM | 100 to 1000 nM |  | 10 to 100 nM |  | < 10 nM | 100 to 1000 nM | < 10 nM | 100 to 1000 nM | < 0.01 µM
CCn1c(-c2cccnc2[C@H](C)OC)c2c3cc(ccc31)-c1cccc(c1)C[C@H](NC(=O)[C@@H](CO[C@H]1CCN(C(=O)C#CC(C)(C)N(C)C)C1)C(C)C)C(=O)N1CCC[C@H](N1)C(=O)OCC(C)(C)C2 (atropisomer, axis not shown) [Example A585] |  |  |  | 1000 to 10000 nM | 1000 to 10000 nM |  | 1000 to 10000 nM |  | 10 to 100 nM | > 10000 nM | 10 to 100 nM | 1000 to 10000 nM | < 0.01 µM
CCn1c(-c2cccnc2[C@H](C)OC)c2c3cc(ccc31)C1=CCCN(C1)C[C@H](NC(=O)[C@H](C(C)C)N(C)C(=O)C1(F)CCN(C(=O)C#CC(C)(C)N(C)C)CC1)C(=O)N1CCC[C@H](N1)C(=O)OCC(C)(C)C2 (atropisomer, axis not shown) [Example A591] |  |  |  | 100 to 1000 nM | 100 to 1000 nM |  | 10 to 100 nM |  | < 10 nM | 1000 to 10000 nM | < 10 nM | 100 to 1000 nM | < 0.01 µM
CCn1c(-c2cccnc2[C@H](C)OC)c2c3cc(ccc31)-c1cccc(c1)C[C@H](NC(=O)[C@@H](COC1CN(C(=O)C#CC(C)(C)N(C)C(C)C)C1)C(C)C)C(=O)N1CCC[C@H](N1)C(=O)OCC(C)(C)C2 (atropisomer, axis not shown) [Example A599] |  |  |  | > 10000 nM | 1000 to 10000 nM |  | 1000 to 10000 nM |  | < 10 nM | > 10000 nM | 10 to 100 nM | > 10000 nM | < 0.01 µM
CO[C@@H](C)c1ncccc1-c1c2c3cc(ccc3n1CC(F)(F)F)-c1cccc(c1)CN(NC(=O)[C@@H](COC1CN(C(=O)C#CC(C)(C)N(C)C)C1)C(C)C)C(=O)N1CCC[C@H](N1)C(=O)OCC(C)(C)C2 (atropisomer, axis not shown) [Example A601] |  |  |  | 1000 to 10000 nM | 1000 to 10000 nM |  | 100 to 1000 nM |  | < 10 nM | 1000 to 10000 nM | < 10 nM | 1000 to 10000 nM | < 0.01 µM
CO[C@@H](C)c1ncccc1-c1c2c3cc(ccc3n1CC(F)(F)F)-c1csc(n1)C[C@H](NC(=O)[C@H](C(C)C)N(C)C(=O)N1CCC3(CC1)CN(C(=O)/C=C/CF)C3)C(=O)N1CCC[C@H](N1)C(=O)OCC(C)(C)C2 (atropisomer, axis not shown) [Example A602] |  |  |  | 10 to 100 nM | 10 to 100 nM |  | 10 to 100 nM |  | 10 to 100 nM | 10 to 100 nM | 10 to 100 nM | 10 to 100 nM | < 0.01 µM
C=CC(=O)N1CCOC2(CCN(C(=O)N(C)[C@H](C(=O)N[C@H]3Cc4nc(n(C)n4)-c4ccc5c(c4)c(c(-c4cccnc4[C@H](C)OC)n5CC(F)(F)F)CC(C)(C)COC(=O)[C@@H]4CCCN(N4)C3=O)C(C)C)CC2)C1 (atropisomer, axis not shown) [Example A606] |  |  |  | 100 to 1000 nM | 100 to 1000 nM |  | 10 to 100 nM |  | 100 to 1000 nM | 100 to 1000 nM | 100 to 1000 nM | 100 to 1000 nM | 0.1 to 1 µM
C=CC(=O)N1CC2(C1)OCCN2C(=O)N(C)[C@H](C(=O)N[C@H]1Cc2nc(cs2)-c2ccc3c(c2)c(c(-c2cccnc2[C@H](C)OC)n3CC)CC(C)(C)COC(=O)[C@@H]2CCCN(N2)C1=O)C(C)C (atropisomer, axis not shown) [Example A620] |  |  |  | 100 to 1000 nM | 100 to 1000 nM |  | 100 to 1000 nM |  | < 10 nM | 10 to 100 nM | < 10 nM | 100 to 1000 nM | < 0.01 µM
CCn1c(-c2cccnc2[C@H](C)OC)c2c3cc(ccc31)-c1cccc(n1)C[C@H](NC(=O)[C@H](C(C)C)N(C)C(=O)N1CCC13CN(C(=O)C#CC(C)(C)N(C)C)C3)C(=O)N1CCC[C@H](N1)C(=O)OCC(C)(C)C2 (atropisomer, axis not shown) [Example A623] |  |  |  | 1000 to 10000 nM | 1000 to 10000 nM |  | 1000 to 10000 nM |  | 100 to 1000 nM | 100 to 1000 nM | 100 to 1000 nM | 1000 to 10000 nM | 0.01 to 0.1 µM
CCn1c(-c2cccnc2[C@H](C)OC)c2c3cc(ccc31)-c1csc(n1)C[C@H](NC(=O)C[C@H](C)OC1CN(C(=O)C#CC(C)(C)N(C)C)C1)C(=O)N1CCC[C@H](N1)C(=O)OCC(C)(C)C2 (atropisomer, axis not shown) [Example A637] |  |  |  | 1000 to 10000 nM | 1000 to 10000 nM |  | 1000 to 10000 nM |  | 10 to 100 nM | 1000 to 10000 nM | 10 to 100 nM | 1000 to 10000 nM | 0.01 to 0.1 µM
CO[C@@H](C)c1ncccc1-c1c2c3cc(ccc3n1CC(F)(F)F)N1CCO[C@@H](C[C@H](NC(=O)[C@H](C(C)C)N3CC[C@]4(CCN(C(=O)C#CC(C)(C)N(C)C)C4)C3=O)C(=O)N3CCC[C@H](N3)C(=O)OCC(C)(C)C2)C1 (atropisomer, axis not shown) [Example A642] |  |  |  | 1000 to 10000 nM | 1000 to 10000 nM |  | 100 to 1000 nM |  | < 10 nM | > 10000 nM | < 10 nM | 1000 to 10000 nM | < 0.01 µM

Reference: patent publication US11566007B2, “Ras inhibitors” (Revolution Medicines, Inc., priority 2019, dated 2023)
